Values of other authors in patent US10590413B2, “Chiral control” (WAVE LIFE SCIENCES LTD., priority 2012, dated 2020).
Where two headings read alike, the source gives them in different places. [Rp] = phosphorothioate linkage, Rp

How the values were obtained:
[1] = system: Mouse B Cells; settings: mean and std. dev. of at least 3 experiments, compared to wells with no added ODN, cited from earlier work
[2] = system: human PBMC; settings: cited from earlier work
[3] = system: Murine IL-6 production and B cell activation; settings: cited from earlier work; for IL-6 (pg/ml) CH12.LX: CH12.LX cells; for SI (stimulation index, [3H] uridine uptake, fold increase from unstimulated control): cells stimulated with 20 μM CpG O-ODN; for SI (stimulation index, [3H] uridine uptake, fold increase from unstimulated control) / SI (stimulation index, [3H] uridine uptake): mean ± SD of triplicates; for SI (stimulation index, [3H] uridine uptake): fold increase from unstimulated control, 20 μM CpG O-ODN; for IgM: unstimulated culture 547 ± 82 ng/ml; for IL-6 (pg/ml) SPLENIC B CELL: splenic B cells
[4] = system: NK Lytic Activity; settings: cited from earlier work; for NK Lytic Activity (LU): human PBMC cultured with ODN 6 μg/ml for 24 hr, lysis of 51Cr-labeled K562 cells; for LU (NK lytic activity): human PBMC, ODN 6 μg/ml for 24 hr, lysis of Cr-labeled K562 cells, cells alone 0.01
[5] = ODN 12 μg/ml, 4 hr, 10% autologous serum, level above wells with no ODN, ELISA
[6] = ODN 12 μg/ml, 24 hr, 10% autologous serum, level above wells with no ODN, ELISA
[7] = unstimulated control ≤10 pg/ml, US 6,239,116 Table 2

Row | Substance | TNF-α [2, 5] [pg/mL] | GM-CSF [2, 6] [pg/mL] | IFN-γ [2, 6] [pg/mL] | IL-6 [2, 6] [pg/mL] | IL-12 [2, 6] [pg/mL] | IL-6 (pg/ml) CH12.LX [3] [pg/mL] | IL-6 (pg/ml) CH12.LX [3, 7] [pg/mL] | SI (stimulation index, [3H] uridine uptake, fold increase from unstimulated control) [3] | SI (stimulation index, [3H] uridine uptake) [3] | IgM ([3]; measured by ELISA) [ng/mL] | IL-6 (pg/ml) SPLENIC B CELL [3] [pg/mL] | IL-6 (pg/ml) SPLENIC B CELL [3, 7] [pg/mL] | GM-CSF [2] | IFN-γ [2] | IL-6 [2] | IL-12 [2] | TNF-α [2] | NK Lytic Activity (LU) [4] [LU] | LU (NK lytic activity) [4] [LU] | other results
1 | 4d (DNA TCTTCGAA; chemistry not fully specified) [Oligonucleotide 4d] | – | – | – | – | – | – | – | – | – | – | – | – | – | – | – | – | – | – | – | Stimulation Index, 3H Uridine ([1]; US 6,239,116 Table 1): 1.3 ± 0.2; Stimulation Index, 3H Uridine [1]: 1.3 ± 0.2
2 | 4e (DNA CAACGTT; chemistry not fully specified) [Oligonucleotide 4e] | – | – | – | – | – | – | – | – | – | – | – | – | – | – | – | – | – | – | – | Stimulation Index, 3H Uridine ([1]; US 6,239,116 Table 1): 1.3 ± 0.2; Stimulation Index, IgM Production ([1]; US 6,239,116 Table 1): 1.1 ± 0.5; Stimulation Index, 3H Uridine [1]: 1.3 ± 0.2
3 | 4f (DNA CCAACGTT; chemistry not fully specified) [Oligonucleotide 4f] | – | – | – | – | – | – | – | – | – | – | – | – | – | – | – | – | – | – | – | Stimulation Index, 3H Uridine ([1]; US 6,239,116 Table 1): 3.9 ± 1.4; Stimulation Index, 3H Uridine [1]: 3.9 ± 1.4
4 | 4g (DNA AACGTTCT; chemistry not given here) [Oligonucleotide 4g] | – | – | – | – | – | – | – | – | – | – | – | – | – | – | – | – | – | – | – | Stimulation Index, 3H Uridine ([1]; US 6,239,116 Table 1): 1.4 ± 0.3; Stimulation Index, 3H Uridine [1]: 1.4 ± 0.3
5 | 4h (DNA TCAACGTC; chemistry not fully specified) [Oligonucleotide 4h] | – | – | – | – | – | – | – | – | – | – | – | – | – | – | – | – | – | – | – | Stimulation Index, 3H Uridine ([1]; US 6,239,116 Table 1): 1.2 ± 0.2; Stimulation Index, 3H Uridine [1]: 1.2 ± 0.2
6 | 1614 (DNA TCCATGACGGTCCTGATGCT; chemistry not given here) [Oligonucleotide 1614] | 31 | 50 | 0 | 550 | 31 | 1533 ± 321 | 1533 ± 321 | 10.8 ± 0.6 | 10.8 ± 0.6 | 7558 ± 414 | 1812 ± 103 | 1812 ± 103 | – | – | – | – | – | – | – | –
7 | 1615 (DNA TCCATGGCGGTCCTGATGCT; chemistry not given here) [Oligonucleotide 1615] | 145 | 45 | 7.8 | 600 | 145 | 1201 ± 155 | 1201 ± 155 | 3.7 ± 0.3 | 3.7 ± 0.3 | 3212 ± 617 | 850 ± 202 | 850 ± 202 | 45 | 7.8 | 600 | 250 | 145 | – | – | –
8 | 1618 (DNA TCCATGACGTTCCTGATGCT; chemistry not given here) [Oligonucleotide 1618] | 60 | 15.6 | 15.6 | 300 | 62 | 2109 ± 291 | 2109 ± 291 | 12.9 ± 0.7 | 12.9 ± 0.7 | 10425 ± 674 | 2596 ± 166 | 2596 ± 166 | 15.6 | 15.6 | 300 | 62 | 60 | – | – | –
9 | 1634 (DNA TCCATGTCGCTCCTGATGCT; chemistry not given here) [Oligonucleotide 1634] | 400 | 85 | 40 | 300 | 400 | 1049 ± 223 | 1049 ± 223 | 9.2 ± 0.9 | 9.2 ± 0.9 | 6256 ± 261 | 1671 ± 175 | 1671 ± 175 | 85 | 40 | 300 | 200 | 400 | – | – | –
10 | 1636 (DNA TCCATGTCGATCCTGATGCT; chemistry not given here) [Oligonucleotide 1636] | 250 | 40 | 35 | 325 | 250 | 1181 ± 76 | 1181 ± 76 | 5.4 ± 0.4 | 5.4 ± 0.4 | 3983 ± 485 | 947 ± 132 | 947 ± 132 | 40 | 35 | 325 | 0 | 250 | – | – | –
11 | 1637 (DNA TCCATGCCGGTCCTGATGCT; chemistry not given here) [Oligonucleotide 1637] | 16 | 15.6 | 7.8 | 550 | 16 | 136 ± 27 | 136 ± 27 | 1.7 ± 0.2 | 1.7 ± 0.2 | 770 ± 72 | 46 ± 6 | 46 ± 6 | 15.6 | 7.8 | 550 | 35 | 16 | – | – | –
12 | 1639 (DNA TCCATAACGTTCCTGATGCT; chemistry not given here) [Oligonucleotide 1639] | 220 | 40 | 15.6 | 625 | 220 | 1827 ± 83 | 1827 ± 83 | 11.5 ± 0.4 | 11.5 ± 0.4 | 9439 ± 103 | 2012 ± 132 | 2012 ± 132 | 40 | 15.6 | 625 | 60 | 220 | – | – | IgM ([3]; ELISA): 9489 ± 103 ng/mL
13 | 1707 (DNA TCCATGACGTCCCTGATGCT; chemistry not given here) [Oligonucleotide 1707] | 70 | 0 | 17 | 300 | 70 | – | – | 4.0 ± 0.2 | 4.0 ± 0.2 | 3534 ± 217 | 1147 ± 175 | 1147 ± 175 | 0 | 17 | 300 | 0 | 70 | – | – | –
14 | 1708 (DNA TCCATCACGTGCCTGATGCT; chemistry not given here) [Oligonucleotide 1708] | 10 | – | 17 | 270 | 10 | – | – | 1.5 ± 0.1 | 1.5 ± 0.1 | 466 ± 109 | 59 ± 3 | 59 ± 3 | 0 | 17 | 270 | 0 | 10 | – | – | –
15 | 1754 (DNA ACCATGGACGATCTGTTTCCCCTC; chemistry not given here) [Oligonucleotide 1754] | – | – | – | – | – | – | – | – | – | – | – | – | – | – | – | – | – | 0.02 | 0.02 | –
16 | 1761 (DNA TACCGCGTGCGACCCTCT; chemistry not given here) [Oligonucleotide 1761] | – | – | – | – | – | – | – | – | – | – | – | – | – | – | – | – | – | 0.05 | 0.05 | –
17 | 1776 (DNA ACCATGGACGAACTGTTTCCCCTC; chemistry not given here) [Oligonucleotide 1776] | – | – | – | – | – | – | – | – | – | – | – | – | – | – | – | – | – | 0.03 | 0.03 | –
18 | 1777 (DNA ACCATGGACGAGCTGTTTCCCCTC; chemistry not given here) [Oligonucleotide 1777] | – | – | – | – | – | – | – | – | – | – | – | – | – | – | – | – | – | 0.05 | 0.05 | –
19 | 1778 (DNA ACCATGGACGACCTGTTTCCCCTC; chemistry not given here) [Oligonucleotide 1778] | – | – | – | – | – | – | – | – | – | – | – | – | – | – | – | – | – | 0.01 | 0.01 | –
20 | 1779 (DNA ACCATGGACGTACTGTTTCCCCTC; chemistry not given here) [Oligonucleotide 1779] | – | – | – | – | – | – | – | – | – | – | – | – | – | – | – | – | – | 0.02 | 0.02 | –
21 | 1780 (DNA ACCATGGACGGTCTGTTTCCCCTC; chemistry not given here) [Oligonucleotide 1780] | – | – | – | – | – | – | – | – | – | – | – | – | – | – | – | – | – | 0.29 | 0.29 | –
22 | All-(Rp)-d[GsCsCsTsCsAsGsTsCsTsGsCsTsTsCsGsCsAsCsC] (DNA GCCTCAGTCTGCTTCGCACC; DNA, all [Rp], methylation of C not given here) [Oligonucleotide 101] | – | – | – | – | – | – | – | – | – | – | – | – | – | – | – | – | – | – | – | Stimulation Index, 3H Uridine ([1]; US 6,239,116 Table 1): 2.9 ± 0.2; Stimulation Index, IgM Production ([1]; US 6,239,116 Table 1): 13.6 ± 2.0; Stimulation Index, 3H Uridine [1]: 2.9 ± 0.2
